Values of other authors in patent US20080153167A1, “In vivo amplification of neural progenitor cells” (priority 2006, published 2008).

System: PDGF driven tumors
Details: Shih et al. 2004

SMILES: Clc1ccc(Nc2nnc(Cc3ccncc3)c3ccccc23)cc1 [PTK787]
- effect on PDGF driven tumors: caused high-grade tumors to acquire low-grade histology, but it did not completely eradicate tumor growth
